The record followed here is PubChem BioAssay AID1083 (University of Pittsburgh Molecular Library Screening Center, 2008).

Structures are written as SMILES. Values joined by “and” are separate entries in the source; they are usually repeats but may differ in a detail not shown here. Equal entries are not always repeated. Active and inactive are the calls of the source. No rule for the calls is given here.

Chain of Serine/threonine-protein kinase PLK1 (Homo sapiens) (P53350 whole entry, looked up, the tested form may be a part): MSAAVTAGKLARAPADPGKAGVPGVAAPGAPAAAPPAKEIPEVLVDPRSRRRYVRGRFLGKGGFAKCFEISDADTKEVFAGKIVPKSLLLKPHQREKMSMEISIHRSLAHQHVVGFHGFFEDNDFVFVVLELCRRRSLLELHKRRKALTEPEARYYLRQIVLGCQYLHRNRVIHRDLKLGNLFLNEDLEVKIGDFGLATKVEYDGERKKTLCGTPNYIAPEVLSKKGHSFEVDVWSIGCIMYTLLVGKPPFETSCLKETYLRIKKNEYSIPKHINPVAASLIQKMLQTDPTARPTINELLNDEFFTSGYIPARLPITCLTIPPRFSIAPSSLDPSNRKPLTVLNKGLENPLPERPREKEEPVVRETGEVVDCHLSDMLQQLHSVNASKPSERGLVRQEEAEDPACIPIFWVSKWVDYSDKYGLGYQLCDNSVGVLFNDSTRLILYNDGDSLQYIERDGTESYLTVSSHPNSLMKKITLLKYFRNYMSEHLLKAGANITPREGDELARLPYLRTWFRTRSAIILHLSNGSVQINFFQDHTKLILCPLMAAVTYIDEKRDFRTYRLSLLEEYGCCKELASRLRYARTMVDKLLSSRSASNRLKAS

This test has as its target Serine/threonine-protein kinase PLK1 (Homo sapiens) (UniProt P53350). The experiment in a line: PLK1 polo-box domain peptide-binding inhibitors, SAR follow-up, biochemical, fluorescence polarization, purchased analogs, concentration response (AID 1083). The conditions noted are these: Plk1 PBD peptide binding. For orientation: In fluorescence polarisation assays a small probe gives low polarisation when free and higher when bound to something large.
On to `CCOC(=O)c1ccc(N=Cc2c(O)n(-c3cccc(C)c3)c(=O)[nH]c2=O)cc1`, for which the IC50 (in general, the concentration needed to halve the response being measured) is > 50 µM (inactive).
Next, `CC(=O)N(CN1C(=O)c2ccccc2C1=O)c1cc(C)ccc1C`: > 50 µM (inactive); `CC(=O)N(/C=C1\Sc2ccccc2C1=O)c1ccc(C)c(C)c1`: > 50 µM (inactive).
Take `CC(=O)N(/N=C1\Sc2ccccc2C1=O)c1ccccc1[N+](=O)[O-]`: the IC50 was 18.7 µM.
On to `CCCOC(=O)c1ccc(NC(=O)c2cc(-c3cccs3)nc3c(C)c(Cl)ccc23)cc1`, for which the IC50 is > 50 µM (inactive).
For `COc1ccccc1N(/N=C1\Sc2ccccc2C1=O)C(C)=O`, the IC50 was 13.3 µM.
As for `CCOC(=O)c1ccc(NC(=O)c2ccc3nc(N)sc3c2)cc1`, the figure is > 50 µM (inactive); as for `Cn1c(=O)[nH]c2nnc(-c3ccccc3)nc2c1=O`, > 50 µM (inactive).
As for `Cn1nc(-c2ccccc2)nc2c(=O)n(C)c(=O)nc1-2`, the figure is 1.45 µM; as for `CC(=O)N(CN1C(=O)c2ccccc2C1=O)c1ccc(Cl)c(Cl)c1`, > 50 µM (inactive); as for `O=C(COC(=O)c1ccc(NC(=O)c2ccc([N+](=O)[O-])cc2)cc1)c1ccccc1`, > 50 µM (inactive).
As for `CC(=O)N(/N=C1\Sc2ccccc2C1=O)c1ccccc1C`, the figure is 37.4 µM.
On to `CCCCCC(=O)N(CN1C(=O)c2ccccc2C1=O)c1cccc(C(=O)O)c1`, for which the IC50 was > 50 µM (inactive).
As for `CC(=O)N(CN1C(=O)c2ccccc2C1=O)c1ccc(F)cc1`, the figure is > 50 µM (inactive); as for `Cn1nc(-c2ccc(C(F)(F)F)cc2)nc2c(=O)n(C)c(=O)nc1-2`, 0.21 µM and 0.851 µM.
With `CCCC(=O)c1c(O)[nH]c(=O)[nH]c1=O`, the IC50 was > 50 µM (inactive).
As for `CCOC(=O)c1ccc(N=Cc2c(O)n(Cc3ccccc3)c(=O)[nH]c2=O)cc1`, the figure is > 50 µM (inactive); as for `CCOC(=O)c1ccc(N=C(c2ccccc2)c2c(O)n(C)c(=O)n(C)c2=O)cc1`, > 50 µM (inactive); as for `CCN(CC)CCOC(=O)c1ccc(N=Cc2c(O)n(Cc3ccccc3)c(=O)[nH]c2=O)cc1`, > 50 µM (inactive).
Turning to `CCOC(=O)c1ccc(N=Cc2c(O)n(CC)c(=O)[nH]c2=O)cc1`, the IC50 is > 50 µM (inactive).
Turning to `CCOC(=O)c1ccc(NC(=O)c2cc3ccccc3c(=O)o2)cc1`, the IC50 was > 50 µM (inactive).
Next, `CC1CN(c2cc3nccnc3cc2F)CC(C)O1` (configuration not stated): > 50 µM (inactive); `CC(=O)N(CN1C(=O)c2ccc([N+](=O)[O-])cc2C1=O)c1ccc(Oc2ccccc2)cc1`: > 50 µM (inactive).
Regarding `COc1ccc(N(CN2C(=O)c3ccccc3C2=O)C(C)=O)cc1`, the IC50 was > 50 µM (inactive).
As for `CCn1nc(-c2ccc(C)cc2)nc2c(=O)n(C)c(=O)nc1-2`, the figure is 0.932 µM; as for `COc1ccccc1N(/C=C1\Sc2ccccc2C1=O)C(C)=O`, > 50 µM (inactive).
Next, `CC(=O)N(CN1C(=O)c2ccccc2C1=O)c1ccccc1Cl`: > 50 µM (inactive); `CCn1nc(-c2ccc([N+](=O)[O-])cc2)nc2c(=O)n(C)c(=O)nc1-2`: 0.571 µM.
As to `CCc1ccc(-c2nc3c(=O)n(C)c(=O)nc-3n(CC)n2)cc1`, the IC50 is 0.786 µM and > 50 µM (inactive).
Regarding `CCCCCC(=O)N(CN1C(=O)c2ccccc2C1=O)c1ccccc1OC`, the IC50 was > 50 µM (inactive).
As for `CC(=O)N(/C=C1\Sc2ccccc2C1=O)c1cc(C(F)(F)F)ccc1Cl`, the figure is > 50 µM (inactive); as for `CCCCCC(=O)N(CN1C(=O)c2ccccc2C1=O)c1ccc(OCc2ccccc2)cc1`, > 50 µM (inactive); as for `CC(=O)N(CN1C(=O)c2ccccc2C1=O)c1ccc(Br)cc1`, > 50 µM (inactive).
On to `COc1ccccc1N(CN1C(=O)c2ccccc2C1=O)C(C)=O`, for which the IC50 was > 50 µM (inactive).
In the case of `CC(=O)N(CN1C(=O)c2ccccc2C1=O)c1cccc(C)c1`, the IC50 is > 50 µM (inactive).
Consider `CCn1nc(-c2ccc(C(=O)OC)cc2)nc2c(=O)n(C)c(=O)nc1-2`, for which the IC50 was 0.488 µM.
Consider `CC(=O)N(CN1C(=O)c2ccccc2C1=O)c1ccc(C)c(Cl)c1`, for which the IC50 is > 50 µM (inactive).
As for `CCCCCCC(=O)N(CN1C(=O)c2ccccc2C1=O)c1ccccc1OC`, the figure is > 50 µM (inactive); as for `COc1ccc(-c2nnc3[nH]c(=O)n(C)c(=O)c3n2)cc1OC`, > 50 µM (inactive); as for `CCOC(=O)c1ccc(NC(=O)C2C3C=CC(C3)C2(C)C(=O)O)cc1` (configuration not stated), > 50 µM (inactive).
As for `COc1ccc(N(/C=C2\Sc3ccccc3C2=O)C(C)=O)cc1`, the figure is > 50 µM (inactive).
Turning to `CCOC(=O)c1ccc(NC(=O)c2ccc3snnc3c2)cc1`, the IC50 was > 50 µM (inactive).
As for `CCn1nc(-c2ccccc2)nc2c(=O)n(C)c(=O)nc1-2`, the figure is 0.524 µM.
As for `COc1ccc(N(CN2C(=O)c3cc(Cl)c(Cl)cc3C2=O)C(C)=O)cc1`, the figure is > 50 µM (inactive); as for `CCn1nc(-c2ccc(OC)cc2)nc2c(=O)n(C)c(=O)nc1-2`, 0.912 µM.
On to `CC(=O)Oc1c(Cl)c(N2CCOCC2)c(OC(C)=O)c2ccccc12`, for which the IC50 is > 50 µM (inactive).
Turning to `CN(C)c1ccc(-c2nnc3c(n2)c(=O)n(C)c(=O)n3C)cc1`, the IC50 was > 50 µM (inactive).
Regarding `CC(=O)Oc1ccccc1N(/C=C1\Sc2ccccc2C1=O)C(C)=O`, the IC50 is > 50 µM (inactive).
Next, `Cc1ccc(-c2nc3c(=O)n(C)c(=O)nc-3n(C)n2)cc1`: 1.35 µM; `COc1cc(C=C2C(=O)NC(=O)NC2=O)cc(Cl)c1O`: > 50 µM (inactive); `CC(=O)N(/C=C1\Sc2ccccc2C1=O)c1ccc(I)cc1`: > 50 µM (inactive).
Turning to `CC(=O)N(/N=C1\Sc2ccccc2C1=O)c1ccccc1Cl`, the IC50 is > 50 µM (inactive).
As for `CC(=O)N(CN1C(=O)c2ccccc2C1=O)c1cccc(F)c1`, the figure is > 50 µM (inactive); as for `Cn1c(=O)[nH]c2nnc(-c3ccc(C(F)(F)F)cc3)nc2c1=O`, > 50 µM (inactive); as for `CCCOC(=O)c1ccc(NC(=O)c2ccc(OC)c([N+](=O)[O-])c2)cc1`, > 50 µM (inactive).
As for `CC(=O)N(CN1C(=O)c2ccccc2C1=O)c1ccc(C)cc1`, the figure is > 50 µM (inactive); as for `COc1cc(C=C2C(=O)NC(=O)NC2=O)ccc1OCc1ccc(Cl)cc1Cl`, > 50 µM (inactive).
Regarding `COc1ccc(N(/N=C2\Sc3ccccc3C2=O)C(C)=O)cc1`, the IC50 was 15.2 µM.
Take `COc1ccc(-c2nc3c(=O)n(C)c(=O)nc-3n(C)n2)cc1OC`: the IC50 was 0.295 µM.
As for `CCCCOC(=O)c1ccc(NC(=O)c2cc(OCC)c(OCC)c(OCC)c2)cc1`, the figure is > 50 µM (inactive); as for `CC(OC(=O)c1ccc(NC(=O)c2ccc(Br)cc2)cc1)C(=O)c1ccccc1` (configuration not stated), > 50 µM (inactive).
As for `CC(=O)N(CN1C(=O)c2ccc(Br)cc2C1=O)c1ccc(Cl)cc1`, the IC50 was > 50 µM (inactive).
In the case of `CCn1nc(-c2cccc(Cl)c2)nc2c(=O)n(C)c(=O)nc1-2`, the IC50 is 0.282 µM and > 50 µM (inactive).
`CCOC(=O)c1ccc(NC(=O)C23CC4CC(CC(C4)C2)C3)cc1`: the IC50 is > 50 µM (inactive).
Next, `COC(=O)c1ccc(N(/N=C2\Sc3ccccc3C2=O)C(C)=O)cc1`: 13.9 µM; `CCOC(=O)c1ccc(NC(=O)C2C3CCC(C3)C2C(=O)O)cc1` (configuration not stated): > 50 µM (inactive).
As for `CCn1nc(-c2ccccc2Cl)nc2c(=O)n(C)c(=O)nc1-2`, the figure is 1.55 µM; as for `O=c1cc[nH]c2cc(N3CCOCC3)c(F)cc12`, > 50 µM (inactive); as for `Cn1c(=O)[nH]c2nnc(-c3ccc([N+](=O)[O-])cc3)nc2c1=O`, > 50 µM (inactive).
Next, `CCOC(=O)c1ccc(N=Cc2c(O)n(-c3ccc(OCC)cc3)c(=O)[nH]c2=O)cc1`: > 50 µM (inactive).
As for `CCOC(=O)c1ccc(NC(=O)c2cc(C)cc(C)c2)cc1`, the IC50 is > 50 µM (inactive).
Take `CCn1nc(-c2ccccc2C)nc2c(=O)n(C)c(=O)nc1-2`: the IC50 was 0.636 µM and 5.67 µM.
In the case of `Cc1ccccc1-c1nnc2[nH]c(=O)n(C)c(=O)c2n1`, the IC50 is > 50 µM (inactive).
On to `CC(=O)N(/C=C1\Sc2ccccc2C1=O)c1cccc(C)c1`, for which the IC50 is > 50 µM (inactive).
As for `CCOC(=O)c1ccc(N=Cc2c(O)n(-c3ccc(C)cc3)c(=O)[nH]c2=O)cc1`, the figure is > 50 µM (inactive).
Turning to `CCOC(=O)c1ccc(NC(=O)c2cc(=O)[nH]c3ccccc23)cc1`, the IC50 is > 50 µM (inactive).
As for `CCOC(=O)c1ccc(N=Cc2c(O)n(Cc3ccc4c(c3)OCO4)c(=O)[nH]c2=O)cc1`, the figure is > 50 µM (inactive); as for `COc1ccc(C(=O)COC(=O)c2ccc(NC(=O)c3ccccc3)cc2)cc1`, > 50 µM (inactive).
As for `CCOC(=O)c1ccc(NC(=O)c2cncc(Br)c2)cc1`, the figure is > 50 µM (inactive); as for `CCn1c(N/C(O)=C/C(O)(C(F)(F)F)C(F)(F)F)nc2ccccc21`, > 50 µM (inactive); as for `Cn1nc(-c2ccc(F)cc2)nc2c(=O)n(C)c(=O)nc1-2`, 0.325 µM.
Next, `CCOC(=O)c1ccc(N=Cc2c(O)n(-c3cccc(OC)c3)c(=O)[nH]c2=O)cc1`: > 50 µM (inactive); `Cn1c(=O)[nH]c(=O)c2nc(-c3ccccc3)c(-c3ccccc3)nc21`: > 50 µM (inactive).
As to `O=C1NC(=O)C(=Cc2cc(Cl)c(OCc3ccc(C(=O)O)cc3)c(Cl)c2)C(=O)N1`, the IC50 is > 50 µM (inactive).
As to `CCOC(=O)c1ccc(N=Cc2c(O)n(Cc3ccccc3Cl)c(=O)[nH]c2=O)cc1`, the IC50 was > 50 µM (inactive).
In the case of `Cn1c(=O)[nH]c2nnc(-c3ccc4c(c3)OCO4)nc2c1=O`, the IC50 was > 50 µM (inactive) and 4.91 µM.
For the compound `CCOC(=O)c1ccc(N=Cc2c(O)[nH]c(=O)[nH]c2=O)cc1`, the IC50 is > 50 µM (inactive).
